Source: US9993494B2, “Compositions and methods for treating fibrotic disease” (eFFECTOR Therapeutics, Inc., priority 2014, dated 2018)

Test system: normal human lung fibroblasts
Test: Ribosomal profiling: translational efficiency in TGFβ-treated fibroblasts
Format: cell-based
Conditions: TGFβ-treated fibroblasts
Procedure: Ribosomal profiling allows for measurement of changes in transcription and translation on a genome-wide basis accompanying TGFβ-dependent transformation of fibroblasts to myofibroblasts. Ribosomal profiles of the TGFβ-treated fibroblasts from Example 1 (about 6×10^6 cells/10 cm plate) were prepared and analyzed for changes in translational efficiencies with respect to potential disease-associated cellular changes accompanying this TGFβ-induced transformation.
Briefly, cells were washed with cold PBS supplemented with cycloheximide and lysed with 1× mammalian cell lysis buffer for 10 minutes on ice. Lysates were clarified by centrifugation for 10 minutes at 14,000 rpm and supernatants were collected. Cell lysates were processed to generate ribosomal protected fragments and total mRNA according to the instructions included with the ARTseq Ribosome Profiling Kit (Illumina, San Diego, Calif.). Sequencing of total RNA (RNA) and of ribosome-protected fragments of RNA (RPF) was carried out using RNA-Seq methodology according to the manufacturer's instructions (Illumina). To analyze the ribosomal profiles, RNA-Seq reads were processed with tools from the FASTX-Toolkit (fastq_quality_trimmer, fastx_clipper and fastx_trimmer). Unprocessed and processed reads were evaluated for a variety of quality measures using FastQC, and processed reads were mapped to the human genome using TopHat (see, e.g., Trapnell et al., Bioinformatics 25:1105, 2009). Gene-by-gene assessment of the number of fragments strictly and uniquely mapping to the coding region of each gene was conducted using HTSeq-count, a component of the HTSeq package. […] Genes with low counts in either RPF or RNA were excluded from differential analyses. Pathway and network analyses of differential data were conducted using Ingenuity Pathway Analysis (IPA).

COC(=O)[C@H]1[C@@H](O)[C@@]2(O)c3c(OC)cc(O[C@@H]4O[C@@H]([C@H](O)CO)CO[C@H]4OC)cc3O[C@@]2(c2ccc(OC)cc2)[C@@H]1c1ccccc1 [Silvestrol]
− (− = <0.9): renormalizing the translational profile of RPL9 (ENSG00000163682) | renormalizing the translational profile of RHOBTB3 (ENSG00000164292) | renormalizing the translational profile of HCN1 (ENSG00000164588) | renormalizing the translational profile of RPL36AL (ENSG00000165502) | renormalizing the translational profile of RPL27A (ENSG00000166441) | renormalizing the translational profile of RP11-382A20.3.1 (ENSG00000166503) | renormalizing the translational profile of ANKDD1A (ENSG00000166839) | renormalizing the translational profile of RPL13 (ENSG00000167526) | renormalizing the translational profile of EEF2 (ENSG00000167658) | renormalizing the translational profile of MURC (ENSG00000170681) | renormalizing the translational profile of HTRA3 (ENSG00000170801) | renormalizing the translational profile of CTPS (ENSG00000171793) | renormalizing the translational profile of QARS (ENSG00000172053) | renormalizing the translational profile of RPL38 (ENSG00000172809) | renormalizing the translational profile of MRPL45 (ENSG00000174100) | renormalizing the translational profile of RPL4 (ENSG00000174444) | renormalizing the translational profile of RPL15 (ENSG00000174748) | renormalizing the translational profile of DES (ENSG00000175084) | renormalizing the translational profile of EIF3F (ENSG00000175390) | renormalizing the translational profile of AMIGO3 (ENSG00000176020) | renormalizing the translational profile of C14orf49 (ENSG00000176438) | renormalizing the translational profile of RPLP2 (ENSG00000177600) | renormalizing the translational profile of IMPDH2 (ENSG00000178035) | renormalizing the translational profile of DNAJC22 (ENSG00000178401) | renormalizing the translational profile of RPL35A (ENSG00000182899) | renormalizing the translational profile of C22orf32 (ENSG00000183172) | renormalizing the translational profile of NPW (ENSG00000183971) | renormalizing the translational profile of ROBO2 (ENSG00000185008) | renormalizing the translational profile of PTCH1 (ENSG00000185920) | renormalizing the translational profile of POLR1D (ENSG00000186184) | renormalizing the translational profile of RPL14 (ENSG00000188846) | renormalizing the translational profile of LRRK2 (ENSG00000188906) | renormalizing the translational profile of NACA (ENSG00000196531) | renormalizing the translational profile of MAP3K5 (ENSG00000197442) | renormalizing the translational profile of RPL37A (ENSG00000197756) | renormalizing the translational profile of RPL12 (ENSG00000197958) | renormalizing the translational profile of LPAR1 (ENSG00000198121) | renormalizing the translational profile of RPL23A (ENSG00000198242) | renormalizing the translational profile of RPL10A (ENSG00000198755) | renormalizing the translational profile of RPL39 (ENSG00000198918) | renormalizing the translational profile of MICA (ENSG00000204520) | renormalizing the translational profile of GNB2L1 (ENSG00000204628) | renormalizing the translational profile of RPL17 (ENSG00000215472) | renormalizing the translational profile of RPL41 (ENSG00000229117) | renormalizing the translational profile of ARPC1A (ENSG00000241685) | renormalizing the translational profile of EEF1G (ENSG00000254772) | effect in renormalizing the translational profile of the gene (gene RPS2 (ENSG00000140988)) | effect in renormalizing the translational profile of the gene (gene RPS3 (ENSG00000149273)) | effect in renormalizing the translational profile of the gene (gene RPS3A (ENSG00000145425)) | effect in renormalizing the translational profile of the gene (gene RPS4X (ENSG00000198034)) | effect in renormalizing the translational profile of the gene (gene RPS4Y1 (ENSG00000129824)) | effect in renormalizing the translational profile of the gene (gene RPS5 (ENSG00000083845)) | effect in renormalizing the translational profile of the gene (gene RPS6 (ENSG00000137154)) | effect in renormalizing the translational profile of the gene (gene RPS7 (ENSG00000171863)) | effect in renormalizing the translational profile of the gene (gene RPS8 (ENSG00000142937)) | effect in renormalizing the translational profile of the gene (gene RPS9 (ENSG00000170889)) | effect in renormalizing the translational profile of the gene (gene RPS10 (ENSG00000124614)) | effect in renormalizing the translational profile of the gene (gene RPS11 (ENSG00000142534)) | effect in renormalizing the translational profile of the gene (gene RPS12 (ENSG00000112306)) | effect in renormalizing the translational profile of the gene (gene RPS13 (ENSG00000110700)) | effect in renormalizing the translational profile of the gene (gene RPS14 (ENSG00000164587)) | effect in renormalizing the translational profile of the gene (gene RPS15 (ENSG00000115268)) | effect in renormalizing the translational profile of the gene (gene RPS15A (ENSG00000134419)) | effect in renormalizing the translational profile of the gene (gene RPS16 (ENSG00000105193)) | effect in renormalizing the translational profile of the gene (gene RPS18 (ENSG00000231500)) | effect in renormalizing the translational profile of the gene (gene RPS19 (ENSG00000105372)) | effect in renormalizing the translational profile of the gene (gene RPS20 (ENSG00000008988)) | effect in renormalizing the translational profile of the gene (gene RPS21 (ENSG00000171858)) | effect in renormalizing the translational profile of the gene (gene RPS23 (ENSG00000186468)) | effect in renormalizing the translational profile of the gene (gene RPS24 (ENSG00000138326)) | effect in renormalizing the translational profile of the gene (gene RPS25 (ENSG00000118181)) | effect in renormalizing the translational profile of the gene (gene RPS26 (ENSG00000197728)) | effect in renormalizing the translational profile of the gene (gene RPS27 (ENSG00000177954)) | effect in renormalizing the translational profile of the gene (gene RPS27A (ENSG00000143947)) | effect in renormalizing the translational profile of the gene (gene RPS28 (ENSG00000233927)) | effect in renormalizing the translational profile of the gene (gene RPS29 (ENSG00000213741)) | effect in renormalizing the translational profile of the gene (gene RPSA (ENSG00000168028)) | effect in renormalizing the translational profile of the gene (gene RTN2 (ENSG00000125744)) | effect in renormalizing the translational profile of the gene (gene SEMA3A (ENSG00000075213)) | effect in renormalizing the translational profile of the gene (gene SHC3 (ENSG00000148082)) | effect in renormalizing the translational profile of the gene (gene SLC7A7 (ENSG00000155465)) | effect in renormalizing the translational profile of the gene (gene SLC15A3 (ENSG00000110446)) | effect in renormalizing the translational profile of the gene (gene SLC25A6 (ENSG00000169100)) | effect in renormalizing the translational profile of the gene (gene SLC40A1 (ENSG00000138449)) | effect in renormalizing the translational profile of the gene (gene SMO (ENSG00000128602)) | effect in renormalizing the translational profile of the gene (gene SOX5 (ENSG00000134532)) | effect in renormalizing the translational profile of the gene (gene SOX6 (ENSG00000110693)) | effect in renormalizing the translational profile of the gene (gene SPATA6 (ENSG00000132122)) | effect in renormalizing the translational profile of the gene (gene STS (ENSG00000101846)) | effect in renormalizing the translational profile of the gene (gene SYNE2 (ENSG00000054654)) | effect in renormalizing the translational profile of the gene (gene TAF1D (ENSG00000166012)) | effect in renormalizing the translational profile of the gene (gene TDG (ENSG00000139372)) | effect in renormalizing the translational profile of the gene (gene TET2 (ENSG00000168769)) | effect in renormalizing the translational profile of the gene (gene TET3 (ENSG00000187605)) | effect in renormalizing the translational profile of the gene (gene TGFBI (ENSG00000120708)) | effect in renormalizing the translational profile of the gene (gene THG1L (ENSG00000113272)) | effect in renormalizing the translational profile of the gene (gene TIMM9 (ENSG00000100575)) | effect in renormalizing the translational profile of the gene (gene TKT (ENSG00000163931)) | effect in renormalizing the translational profile of the gene (gene TOMM7 (ENSG00000196683)) | effect in renormalizing the translational profile of the gene (gene TPGS1 (ENSG00000141933)) | effect in renormalizing the translational profile of the gene (gene TPM2 (ENSG00000198467)) | effect in renormalizing the translational profile of the gene (gene TPT1 (ENSG00000133112)) | effect in renormalizing the translational profile of the gene (gene UBA52 (ENSG00000221983)) | effect in renormalizing the translational profile of the gene (gene UQCRB (ENSG00000156467)) | effect in renormalizing the translational profile of the gene (gene UTRN (ENSG00000152818)) | effect in renormalizing the translational profile of the gene (gene VIM (ENSG00000026025)) | effect in renormalizing the translational profile of the gene (gene ZNF581 (ENSG00000171425)) | effect in renormalizing the translational profile of the gene (gene ZNF608 (ENSG00000168916))
26 genes: number of genes whose translational efficiency was uniquely modulated by the compound (duplicate ribosomal profiles)
+++ (+++ = >2.0): renormalizing the translational profile of PDE4B (ENSG00000184588) | effect in renormalizing the translational profile of the gene (gene TMTC1 (ENSG00000133687)) | effect in renormalizing the translational profile of the gene (gene TOP2A (ENSG00000131747))
++ (++ = 1.5 to 2.0): renormalizing the translational profile of DYNC2H1 (ENSG00000187240) | effect in renormalizing the translational profile of the gene (gene SLC2A12 (ENSG00000146411))
+ (+ = 0.9 to 1.5): renormalizing the translational profile of CA5B (ENSG00000169239) | renormalizing the translational profile of PDE7B (ENSG00000171408) | renormalizing the translational profile of LPAR3 (ENSG00000171517) | renormalizing the translational profile of CLCF1 (ENSG00000175505) | renormalizing the translational profile of LENG9 (ENSG00000182909) | renormalizing the translational profile of LAMB3 (ENSG00000196878) | renormalizing the translational profile of PCBP2 (ENSG00000197111) | renormalizing the translational profile of CARD16 (ENSG00000204397) | effect in renormalizing the translational profile of the gene (gene RPS6KA5 (ENSG00000100784)) | effect in renormalizing the translational profile of the gene (gene SGIP1 (ENSG00000118473)) | effect in renormalizing the translational profile of the gene (gene SNRPA (ENSG00000077312)) | effect in renormalizing the translational profile of the gene (gene STAMBPL1 (ENSG00000138134)) | effect in renormalizing the translational profile of the gene (gene TEN1 (ENSG00000257949)) | effect in renormalizing the translational profile of the gene (gene THBS3 (ENSG00000169231)) | effect in renormalizing the translational profile of the gene (gene TRERF1 (ENSG00000124496))
